# Like-named read-outs stand apart in the source and are kept apart here.
# System: HCV pseudoparticles (genotype 1a HCV E1 and E2 envelope, H77C isolate)
# Assay: microbe, parasite or virus in culture
# Type: cell-based
# Settings: Hepatitis C virus
# [1] = Huh-7, read-out: Activity (EC50 class), HCV pseudoparticles (genotype 1a, H77C) in Huh7 cells, EC50 expressed as class A/B
# [2] = Huh-7, 48 h, read-out: Activity (EC50 class), HCV pseudoparticles, Huh7 cells, luciferase 2 days after infection, average of duplicates
# [3] = Huh-7, 48 h, read-out: Activity (EC50 class), HCV pseudoparticle infection of Huh7 cells, luciferase 2 days after infection, EC50 expressed as class A/B
# [4] = Huh-7, 48 h, HCV pseudoparticles, Huh7 cells, luciferase 2 days after infection, average of duplicates
# [5] = Huh-7, 48 h, HCV pseudoparticles (genotype 1a, H77C) in Huh7 cells, average of duplicate, luciferase 2 days after infection
Structure (SMILES),EC50 [1] [nM],EC50 [3] [nM],also measured
CN(CCCNC(=O)c1ccc(Nc2nc(NC3(c4ccc(Cl)cc4)CC3)nc(OCC(F)(F)F)n2)cc1)C(=O)C(=O)NCc1ccc(F)cc1 [Compound 3444],0.01 to 10,,
COC(=O)[C@H](CNC(=O)C(=O)Nc1cccc(Cl)c1)NC(=O)c1ccc(Nc2nc(NC3(c4ccc(Cl)cc4)CC3)nc(OCC(F)(F)F)n2)cc1 [Compound 3685],,,EC50 [2]: 0.01 to 10 nM
O=C(NCC[C@H](NC(=O)c1ccc(Nc2nc(NC3(c4ccc(Cl)cc4)CC3)nc(OCC(F)(F)F)n2)cc1)C(=O)O)C(=O)Nc1ccc(C(F)(F)F)cc1 [Compound 1275],,0.01 to 10,
COc1cc2nc(NC(=O)C(=O)NCC(C)(C)CNC(=O)c3ccc(Nc4nc(NC5(c6ccc(Cl)cc6)CC5)nc(OCC(F)(F)F)n4)cc3F)sc2cc1OC [Compound 3677],,,EC50 [2]: 0.01 to 10 nM
O=C(NC/C(=N/C(=O)c1ccc(Nc2nc(NC3(c4ccc(Cl)cc4)CC3)nc(OCC(F)(F)F)n2)cc1)C(=O)O)C(=O)Nc1ccc(C(=O)N2CCOCC2)cc1 [Compound 3166],0.01 to 10,,
COC(=O)[C@H](CNC(=O)C(=O)Nc1ccc(S(=O)(=O)N2CCCC2)cc1)NC(=O)c1ccc(Nc2nc(NC3(c4ccc(Cl)cc4)CC3)nc(OCC(F)(F)F)n2)cc1 [Compound 3106],0.01 to 10,,
COC(=O)[C@H](CCNC(=O)C(=O)N[C@H]1C[C@H]1c1ccccc1)NC(=O)c1ccc(Nc2nc(NC3(c4ccc(Cl)cc4)CC3)nc(OCC(F)(F)F)n2)cc1 [Compound 1317],,0.01 to 10,
COC(=O)[C@H](CNC(=O)C(=O)Nc1ccc(-n2cncn2)cc1)NC(=O)c1ccc(Nc2nc(NC3(c4ccc(Cl)cc4)CC3)nc(OCC(F)(F)F)n2)cc1 [Compound 3101],0.01 to 10,,
CC(C)(CNC(=O)C(=O)Nc1ccc(CC(=O)O)cc1)CNC(=O)c1ccc(Nc2nc(NC3(c4ccc(Cl)cc4)CC3)nc(OCC(F)(F)F)n2)cc1 [Compound 1481],,0.01 to 10,
O=C(N[C@H](CCNC(=O)c1ccc(Nc2nc(NC3(c4ccc(Cl)cc4)CC3)nc(OCC(F)(F)F)n2)cc1)C(=O)O)C(=O)N1CCc2ccccc2C1 [Compound 3495],0.01 to 10,,
CC1(C)[C@H]2CCC(CNC(=O)C(=O)NC[C@H](NC(=O)c3ccc(Nc4nc(NC5(c6ccc(Cl)cc6)CC5)nc(OCC(F)(F)F)n4)cc3)C(=O)O)[C@@H]1C2 (stereo partly shown) [Compound 1473],,0.01 to 10,
COC(=O)[C@H](CCNC(=O)C(=O)Nc1ccc(F)c(F)c1)NC(=O)c1ccc(Nc2nc(NC3(c4ccc(Cl)cc4)CC3)nc(OCC(F)(F)F)n2)cc1 [Compound 1505],,0.01 to 10,
COC(=O)[C@H](CNC(=O)C(=O)NCC(C)c1ccccc1)NC(=O)c1ccc(Nc2nc(NC3(c4ccc(Cl)cc4)CC3)nc(OCC(F)(F)F)n2)cc1 (stereo partly shown) [Compound 1283],,0.01 to 10,
CC(C)(CNC(=O)C(N)=O)CNC(=O)c1ccc(Nc2nc(NC3(c4ccc(Cl)cc4)CC3)nc(OCC(F)(F)F)n2)cc1-c1ccccc1 [Compound 3511],0.01 to 10,,
CC(C)(CNC(=O)C(=O)Nc1ccc(CC(=O)N2CCCC2)cc1)CNC(=O)c1ccc(Nc2nc(NC3(c4ccc(Cl)cc4)CC3)nc(OCC(F)(F)F)n2)cc1 [Compound 1592],,0.01 to 10,
COC(=O)[C@@H](CCNC(=O)C(=O)Nc1cccc(OCc2ccccc2)c1)NC(=O)c1ccc(Nc2nc(NC3(c4ccc(Cl)cc4)CC3)nc(OCC(F)(F)F)n2)cc1 [Compound 3571],0.01 to 10,,
Cn1nnnc1-c1cccc(NC(=O)C(=O)NC[C@H](NC(=O)c2ccc(Nc3nc(NC4(c5ccc(Cl)cc5)CC4)nc(OCC(F)(F)F)n3)cc2)C(=O)Cl)c1 [Compound 3786],,,EC50 [4]: 0.55 nM; EC50 [2]: 0.01 to 10 nM
CC(C)(CNC(=O)c1ccc(Nc2nc(NC3(c4ccc(Cl)cc4)CC3)nc(OCC(F)(F)F)n2)cc1)NC(=O)C(=O)Nc1ccc(F)cc1F [Compound 3438],0.01 to 10,,
COC(=O)[C@H](CNC(=O)C(=O)Nc1ccc(OCCN(C)C)nc1)NC(=O)c1ccc(Nc2nc(NC3(c4ccc(Cl)cc4)CC3)nc(OCC(F)(F)F)n2)cc1 [Compound 3735],,,EC50 [2]: 0.01 to 10 nM
CC(C)(CNC(=O)C(=O)Nc1ccc(F)cc1C(F)(F)F)CNC(=O)c1ccc(Nc2nc(NC3(c4ccc(Cl)cc4)CC3)nc(OCC(F)(F)F)n2)cc1 [Compound 3457],0.01 to 10,,
COC(=O)[C@H](CNC(=O)C(=O)Nc1cccc(S(=O)(=O)C(F)(F)F)c1)NC(=O)c1ccc(Nc2nc(NC3(c4ccc(Cl)cc4)CC3)nc(OCC(F)(F)F)n2)cc1 [Compound 3710],,,EC50 [2]: 0.01 to 10 nM
O=C(NCCc1cccc(F)c1)C(=O)NC[C@H](NC(=O)c1ccc(Nc2nc(NC3(c4ccc(Cl)cc4)CC3)nc(OCC(F)(F)F)n2)cc1)C(=O)O [Compound 1401],,0.01 to 10,
Cc1cc2nc(NC(=O)C(=O)NCC(C)(C)CNC(=O)c3ccc(Nc4nc(NC5(c6ccc(Cl)cc6)CC5)nc(OCC(F)(F)F)n4)cc3)sc2cc1C [Compound 3820],,,EC50 [2]: 0.01 to 10 nM
COC(=O)[C@H](CNC(=O)C(=O)Nc1ccc(C(=O)N2CCOCC2)cc1)NC(=O)c1ccc(Nc2nc(NC3(c4ccc(Cl)cc4)CC3)nc(OCC(F)(F)F)n2)cc1 [Compound 3099],0.01 to 10,,

Structure (SMILES),EC50 [1] [nM],EC50 [3] [nM],also measured
O=C(NCC[C@H](NC(=O)c1ccc(Nc2nc(NC3(c4ccc(Cl)cc4)CC3)nc(OCC(F)(F)F)n2)cc1)C(=O)O)C(=O)Nc1cccc(-c2ncc[nH]2)c1 [Compound 3634],,,EC50 [2]: 0.01 to 10 nM
O=C(NCC(O)CNC(=O)c1ccc(Nc2nc(NC3(c4ccc(Cl)cc4)CC3)nc(OCC(F)(F)F)n2)cc1)C(=O)Nc1ccccc1 (stereo not shown) [Compound 3460],0.01 to 10,,EC50 [5]: 0.016 nM
COc1ccccc1-c1ccccc1NC(=O)C(=O)NCC(C)(C)CNC(=O)c1ccc(Nc2nc(NC3(c4ccc(Cl)cc4)CC3)nc(OCC(F)(F)F)n2)cc1 [Compound 3050],0.01 to 10,,
COC(=O)[C@H](CNC(=O)C(=O)NCC1CC[C@H]2C[C@@H]1C2(C)C)NC(=O)c1ccc(Nc2nc(NC3(c4ccc(Cl)cc4)CC3)nc(OCC(F)(F)F)n2)cc1 (stereo partly shown) [Compound 1453],,0.01 to 10,
O=C(NC[C@H](NC(=O)c1ccc(Nc2nc(NC3(c4ccc(Cl)cc4)CC3)nc(OCC(F)(F)F)n2)cc1)C(=O)O)C(=O)Nc1cccc(-c2ncc[nH]2)c1 [Compound 3765],,,EC50 [4]: 0.68 nM; EC50 [2]: 0.01 to 10 nM
CC(C)(C)OC(=O)NC1CCC(NC(=O)C(=O)NC[C@H](NC(=O)c2ccc(Nc3nc(NC4(c5ccc(Cl)cc5)CC4)nc(OCC(F)(F)F)n3)cc2)C(=O)O)CC1 (stereo partly shown) [Compound 1085],,0.01 to 10,
O=C(NCC[C@H](NC(=O)c1ccc(Nc2nc(NC3(c4ccc(Cl)cc4)CC3)nc(OCC(F)(F)F)n2)cc1)C(=O)O)C(=O)NCC1(COc2ccccc2)CC1 [Compound 1431],,0.01 to 10,
O=C(NCCc1ccncc1)C(=O)NCC[C@H](NC(=O)c1ccc(Nc2nc(NC3(c4ccc(Cl)cc4)CC3)nc(OCC(F)(F)F)n2)cc1)C(=O)O [Compound 1332],,0.01 to 10,
Cc1cccc(C2CC2CNC(=O)C(=O)NCC[C@H](NC(=O)c2ccc(Nc3nc(NC4(c5ccc(Cl)cc5)CC4)nc(OCC(F)(F)F)n3)cc2)C(=O)O)c1 (stereo partly shown) [Compound 1434],,0.01 to 10,
CC(C)(CNC(=O)C(=O)Nc1nc2ccc(OC(F)(F)F)cc2s1)CNC(=O)c1ccc(Nc2nc(NC3(c4ccc(Cl)cc4)CC3)nc(OCC(F)(F)F)n2)cc1 [Compound 3823],,,EC50 [2]: 0.01 to 10 nM
Cc1ccc(NC(=O)C(=O)NCC(C)(C)CNC(=O)c2ccc(Nc3nc(NC4(c5ccc(Cl)cc5)CC4)nc(OCc4ccc(OC(F)F)cc4)n3)cc2)cc1 [Compound 3840],,,EC50 [2]: 0.01 to 10 nM
COC(=O)[C@H](CCNC(=O)C(=O)N[C@H]1C[C@H]2C3C2[C@]31C)NC(=O)c1ccc(Nc2nc(NC3(c4ccc(Cl)cc4)CC3)nc(OCC(F)(F)F)n2)cc1 (stereo partly shown) [Compound 1100],,0.01 to 10,
COC(=O)[C@H](CCNC(=O)C(=O)Nc1ccc(N2CCC(C(C)=O)CC2)cc1)NC(=O)c1ccc(Nc2nc(NC3(c4ccc(Cl)cc4)CC3)nc(OCC(F)(F)F)n2)cc1 [Compound 3303],0.01 to 10,,EC50 [5]: 5.59 nM
COC(=O)[C@H](CNC(=O)C(=O)NC1CCCCC1C)NC(=O)c1ccc(Nc2nc(NC3(c4ccc(Cl)cc4)CC3)nc(OCC(F)(F)F)n2)cc1 (stereo partly shown) [Compound 1061],,0.01 to 10,"EC50 (Huh-7, 48 h, HCV pseudoparticle infection of Huh7 cells, luciferase 2 days after infection, average of duplicates): 1.58 nM"
COC(=O)[C@H](CNC(=O)C(=O)Nc1ccc(C(C)C)cc1)NC(=O)c1ccc(Nc2nc(NC3(c4ccc(Cl)cc4)CC3)nc(OCC(F)(F)F)n2)cc1 [Compound 3212],0.01 to 10,,
CC(C)(CNC(=O)C(=O)Nc1c(F)cc(F)cc1F)CNC(=O)c1ccc(Nc2nc(NC3(c4ccc(Cl)cc4)CC3)nc(OCC(F)(F)F)n2)cc1 [Compound 3416],0.01 to 10,,
Cn1ccnc1NC(=O)C(=O)NCC[C@H](NC(=O)c1ccc(Nc2nc(NC3(c4ccc(Cl)cc4)CC3)nc(OCC(F)(F)F)n2)cc1)C(=O)O [Compound 1264],,10 to 1000,
CCOCC1(CNC(=O)C(=O)NCC[C@@H](NC(=O)c2ccc(Nc3nc(NC4(c5ccc(Cl)cc5)CC4)nc(OCC(F)(F)F)n3)cc2)C(=O)OC)CC1 [Compound 1379],,0.01 to 10,
COC(=O)[C@H](CCNC(=O)C(=O)Nc1cn[nH]c1)NC(=O)c1ccc(Nc2nc(NC3(c4ccc(Cl)cc4)CC3)nc(OCC(F)(F)F)n2)cc1 [Compound 1224],,0.01 to 10,
CC(C)(CNC(=O)C(=O)Nc1ccc(Cl)cc1C(N)=O)CNC(=O)c1ccc(Nc2nc(NC3(c4ccc(Cl)cc4)CC3)nc(OCC(F)(F)F)n2)cc1 [Compound 3110],0.01 to 10,,
COC(=O)[C@H](CNC(=O)C(=O)NCc1ccc(F)cc1F)NC(=O)c1ccc(Nc2nc(NC3(c4ccc(Cl)cc4)CC3)nc(OCC(F)(F)F)n2)cc1 [Compound 1134],,0.01 to 10,
CC(C)(CNC(=O)C(=O)Nc1cccc(-c2ccccc2)c1)CNC(=O)c1ccc(Nc2nc(NC3(c4ccc(Cl)cc4)CC3)nc(OCC(F)(F)F)n2)cc1 [Compound 1582],,0.01 to 10,
CCc1ccccc1NC(=O)C(=O)NCC(C)(C)CNC(=O)c1ccc(Nc2nc(NC3(c4ccc(Cl)cc4)CC3)nc(OCC(F)(F)F)n2)cc1 [Compound 3047],0.01 to 10,,

# Reference: patent publication US8916702B2 (priority 2012, dated 2014)
